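Interpolation was linear, between the two tested concentrations surrounding the appropriate level; five concentrations were tested over 48 hours in 96-well plates. Definition used: TGI = concentration required for complete inhibition of growth.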
Assays:
Test in all cases: NCI tumour cell line growth inhibition, 48 h
[1] = system: OVCAR-4 ovarian
[2] = system: UACC-257 melanoma
[3] = system: SF-295 CNS
[4] = system: M14 melanoma
[5] = system: HCT-15 colon
[6] = system: COLO 205 colon
[7] = system: T-47D breast
[8] = system: SW-620 colon
[9] = system: NCI-H460 lung
[10] = system: SR leukemia
[11] = system: MDA-MB-435
[12] = system: CAKI-1 renal
[13] = system: SK-OV-3 ovarian
[14] = system: MDA-MB-231 breast
[15] = system: BT-549 breast
[16] = system: MCF7 breast
[17] = system: HL-60(TB) leukemia
[18] = system: LOX IMVI melanoma
[19] = system: OVCAR-3 ovarian
[20] = system: HCT-116 colon
[21] = system: SF-268 CNS
[22] = system: A498 renal
[23] = system: K-562 leukemia
[24] = system: SF-539 CNS
[25] = system: CCRF-CEM leukemia
[26] = system: PC-3 prostate
[27] = system: UO-31 renal
[28] = system: OVCAR-8 ovarian
[29] = system: ACHN renal
[30] = system: SNB-75 CNS
[31] = system: NCI-H522 lung
[32] = system: SNB-19 CNS
[33] = system: MALME-3M melanoma
[34] = system: HOP-62 NSCLC
[35] = system: A549 NSCLC
[36] = system: SK-MEL-28 melanoma
[37] = system: SN12C renal
[38] = system: KM12 colon
[39] = system: 786-0 renal
[40] = system: HCC-2998 colon
[41] = system: UACC-62 melanoma
[42] = system: HOP-92 NSCLC
[43] = system: HS 578T breast
[44] = system: U251 CNS
[45] = system: DU-145 prostate
[46] = system: NCI-H226 lung
[47] = system: MDA-N
[48] = system: TK-10 renal
[49] = system: SK-MEL-2 melanoma
[50] = system: RPMI-8226 leukemia
[51] = system: SK-MEL-5 melanoma
[52] = system: IGROV1 ovarian
[53] = system: NCI-H23 lung
[54] = system: RXF 393 renal
[55] = system: NCI/ADR-RES ovarian
[56] = system: EKVX NSCLC
[57] = system: OVCAR-5 ovarian
[58] = system: HT29 colon
[59] = system: MOLT-4 leukemia

SMILES: C[N+](C)(C)CCN(Cc1cccs1)c1ccccn1
- TGI [1]: > 100 µM
- TGI [2]: > 100 µM
- TGI [3]: > 100 µM
- TGI [4]: > 100 µM
- TGI [5]: > 100 µM
- TGI [6]: > 100 µM
- TGI [7]: > 100 µM
- TGI [8]: > 100 µM
- TGI [9]: > 100 µM
- TGI [10]: > 100 µM
- TGI [11]: > 100 µM
- TGI [12]: > 100 µM
- TGI [13]: > 100 µM
- TGI [14]: > 100 µM
- TGI [15]: > 100 µM
- TGI [16]: > 100 µM
- TGI [17]: > 100 µM
- TGI [18]: > 100 µM
- TGI [19]: > 100 µM
- TGI [20]: > 100 µM
- TGI [21]: > 100 µM
- TGI [22]: > 100 µM
- TGI [23]: > 100 µM
- TGI [24]: > 100 µM
- TGI [25]: > 100 µM
- TGI [26]: > 100 µM
- TGI [27]: > 100 µM
- TGI [28]: > 100 µM
- TGI [29]: > 100 µM
- TGI [30]: > 100 µM
- TGI [31]: > 100 µM
- TGI [32]: > 100 µM
- TGI [33]: > 100 µM
- TGI [34]: > 100 µM
- TGI [35]: > 100 µM
- TGI [36]: > 100 µM
- TGI [37]: > 100 µM
- TGI [38]: > 100 µM
- TGI [39]: > 100 µM
- TGI [40]: > 100 µM
- TGI [41]: > 100 µM
- TGI [42]: 73.9 µM
- TGI [43]: > 100 µM
- TGI [44]: > 100 µM
- TGI [45]: > 100 µM
- TGI [46]: > 100 µM
- TGI [47]: > 100 µM
- TGI [48]: > 100 µM
- TGI [49]: > 100 µM
- TGI [50]: > 100 µM
- TGI [51]: > 100 µM
- TGI [52]: > 100 µM
- TGI [53]: > 100 µM
- TGI [54]: > 100 µM
- TGI [55]: > 100 µM

SMILES: Cc1cc2nc(C#N)c(N3CCN(c4ccc([N+](=O)[O-])cc4)CC3)nc2cc1C
- TGI [1]: > 100 µM
- TGI [2]: > 100 µM
- TGI [3]: > 100 µM
- TGI [4]: > 100 µM
- TGI [5]: > 100 µM
- TGI [6]: > 100 µM
- TGI [7]: > 100 µM
- TGI [8]: > 100 µM
- TGI [9]: > 100 µM
- TGI [10]: > 100 µM
- TGI [11]: > 100 µM
- TGI [56]: > 100 µM
- TGI [12]: > 100 µM
- TGI [13]: > 100 µM
- TGI [14]: > 100 µM
- TGI [15]: > 100 µM
- TGI [16]: > 100 µM
- TGI [18]: > 100 µM
- TGI [19]: > 100 µM
- TGI [20]: > 100 µM
- TGI [21]: > 100 µM
- TGI [22]: > 100 µM
- TGI [23]: > 100 µM
- TGI [24]: 81.2 µM
- TGI [25]: > 100 µM
- TGI [26]: > 100 µM
- TGI [27]: > 100 µM
- TGI [28]: > 100 µM
- TGI [29]: > 100 µM
- TGI [30]: > 100 µM
- TGI [31]: > 100 µM
- TGI [32]: > 100 µM
- TGI [33]: > 100 µM
- TGI [34]: > 100 µM
- TGI [35]: > 100 µM
- TGI [36]: > 100 µM
- TGI [37]: > 100 µM
- TGI [57]: > 100 µM
- TGI [38]: > 100 µM
- TGI [39]: > 92.9 µM
- TGI [40]: > 100 µM
- TGI [41]: > 100 µM
- TGI [42]: > 100 µM
- TGI [43]: 95.5 µM
- TGI [44]: > 100 µM
- TGI [45]: > 100 µM
- TGI [46]: > 100 µM
- TGI [47]: > 100 µM
- TGI [48]: > 100 µM
- TGI [49]: > 100 µM
- TGI [50]: > 100 µM
- TGI [51]: > 100 µM
- TGI [58]: > 100 µM
- TGI [52]: > 100 µM
- TGI [53]: > 100 µM
- TGI [54]: > 100 µM
- TGI [55]: > 100 µM

SMILES: C/C=C(\C)[C@@H](O)C(=O)O[C@@H]1CC(C(C)(C)O)[C@](C)(CCC(=O)OC)[C@H]2[C@H](OC(=O)[C@H](O)[C@H](C)CC)C[C@]3(C)C(=CC[C@H]3[C@H]3CO[C@H](C=C(C)C)C3)[C@]12C (some centres undefined)
- TGI [1]: 41.8 µM
- TGI [2]: 49.9 µM
- TGI [3]: > 100 µM
- TGI [4]: 32.8 µM
- TGI [5]: 37.4 µM
- TGI [7]: 87.1 µM
- TGI [8]: 58 µM
- TGI [9]: 38.6 µM
- TGI [10]: 40.2 µM
- TGI [11]: 52.5 µM
- TGI [56]: 29.8 µM
- TGI [12]: 87.2 µM
- TGI [14]: 38.4 µM
- TGI [15]: 32.7 µM
- TGI [16]: 42.1 µM
- TGI [17]: 40.6 µM
- TGI [18]: 31.4 µM
- TGI [19]: 44.2 µM
- TGI [20]: 31.9 µM
- TGI [21]: 36.8 µM
- TGI [22]: 60.2 µM
- TGI [23]: 42.4 µM
- TGI [24]: 35.8 µM
- TGI [26]: 34.9 µM
- TGI [27]: 33.5 µM
- TGI [28]: 33.9 µM
- TGI [29]: 34.1 µM
- TGI [30]: 37.6 µM
- TGI [31]: 29.5 µM
- TGI [34]: > 100 µM
- TGI [35]: 61.7 µM
- TGI [36]: 40.3 µM
- TGI [57]: 43.2 µM
- TGI [38]: 65.3 µM
- TGI [39]: 29.5 µM
- TGI [40]: 29.7 µM
- TGI [42]: 71.7 µM
- TGI [43]: 41 µM
- TGI [44]: 33.4 µM
- TGI [59]: 48.2 µM
- TGI [45]: 98.5 µM
- TGI [46]: 50.9 µM
- TGI [47]: 35.4 µM
- TGI [48]: 61.7 µM
- TGI [49]: 32.4 µM
- TGI [50]: 38.3 µM
- TGI [51]: 33.2 µM
- TGI [58]: 34.5 µM
- TGI [52]: > 100 µM
- TGI [53]: 37.7 µM
- TGI [54]: 32.9 µM
- TGI [55]: 30.5 µM

— PubChem BioAssay (NCI)
